Values of other authors as cited in publication PMC4132888 (Biopolymers, 2014).
Where no end group is shown, it is not given here. [ ]: non-standard residue; d: D form.

Key:
[1] = biological target: T1, rat μ opioid receptor (MOR) (Rattus norvegicus, UniProt P33535); details: previously reported; ref [13]
[2] = biological target: T2, rat δ opioid receptor (DOR) (Rattus norvegicus, UniProt P33533); details: previously reported; ref [13]
[3] = biological target: T1, rat μ opioid receptor (MOR); details: previously reported; ref [13]; remark: listed apart in the source
[4] = biological target: T2, rat δ opioid receptor (DOR); details: previously reported; ref [13]; remark: listed apart in the source
MOR = details: read-out: Binding MOR; ref [33]
DOR = details: read-out: Binding DOR; ref [33]

T2 sequence (P33533 whole entry): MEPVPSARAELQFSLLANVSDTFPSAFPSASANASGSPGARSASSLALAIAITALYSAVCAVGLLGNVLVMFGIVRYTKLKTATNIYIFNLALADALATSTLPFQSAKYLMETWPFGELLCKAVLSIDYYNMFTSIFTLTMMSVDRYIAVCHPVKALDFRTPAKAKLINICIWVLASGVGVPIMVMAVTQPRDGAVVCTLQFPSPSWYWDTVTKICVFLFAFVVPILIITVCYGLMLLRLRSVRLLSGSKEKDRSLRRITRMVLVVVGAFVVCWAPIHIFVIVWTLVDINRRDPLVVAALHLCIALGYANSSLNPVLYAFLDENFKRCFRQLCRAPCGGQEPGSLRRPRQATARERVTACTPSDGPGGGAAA
T1 sequence (P33535 whole entry): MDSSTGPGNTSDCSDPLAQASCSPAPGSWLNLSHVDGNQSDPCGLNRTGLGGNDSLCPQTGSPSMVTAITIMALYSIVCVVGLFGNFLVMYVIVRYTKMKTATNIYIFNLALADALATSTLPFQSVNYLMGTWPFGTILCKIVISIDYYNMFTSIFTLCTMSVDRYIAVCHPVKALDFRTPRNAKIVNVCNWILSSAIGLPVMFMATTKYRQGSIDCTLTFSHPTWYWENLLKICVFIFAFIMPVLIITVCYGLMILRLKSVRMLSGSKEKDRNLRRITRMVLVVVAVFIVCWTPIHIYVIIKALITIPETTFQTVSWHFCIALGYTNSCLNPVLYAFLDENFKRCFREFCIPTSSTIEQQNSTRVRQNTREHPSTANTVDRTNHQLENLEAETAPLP

Dmt-c(S-Et-S)[DCys-Aic-DPen]OH [KSK-103]
Binding for MOR (in words) [1]: low nanomolar binding | Binding for DOR (in words) [2]: low nanomolar binding | Agonist activity at MOR (in words) [3]: moderate agonist activity | Stimulation of DOR (in words) [4]: no stimulation

Tyr-DThr-Gly-Phe-Leu-Ser-(O-β-D-lactose)-NH2 [MMP-2200]
KOR affinity (in words) (KOR; ref Polt and co-workers): high KOR affinity

Y[dT]GFLS-NH2 [DTLES]
Ki (MOR): 1.4 ± 0.08 nM | Ki (DOR): 4.1 ± 0.41 nM | Ki (KOR; read-out: Binding KOR, ref [33]): 34 ± 2.2 nM
